The values that follow come from paper PMC4471549 (Angewandte Chemie (International Ed. in English), 2015).

The target in assay [1] is T1, STAT5a (SH2 domain) (Homo sapiens, UniProt P42229).
T1 sequence (P42229 1-794): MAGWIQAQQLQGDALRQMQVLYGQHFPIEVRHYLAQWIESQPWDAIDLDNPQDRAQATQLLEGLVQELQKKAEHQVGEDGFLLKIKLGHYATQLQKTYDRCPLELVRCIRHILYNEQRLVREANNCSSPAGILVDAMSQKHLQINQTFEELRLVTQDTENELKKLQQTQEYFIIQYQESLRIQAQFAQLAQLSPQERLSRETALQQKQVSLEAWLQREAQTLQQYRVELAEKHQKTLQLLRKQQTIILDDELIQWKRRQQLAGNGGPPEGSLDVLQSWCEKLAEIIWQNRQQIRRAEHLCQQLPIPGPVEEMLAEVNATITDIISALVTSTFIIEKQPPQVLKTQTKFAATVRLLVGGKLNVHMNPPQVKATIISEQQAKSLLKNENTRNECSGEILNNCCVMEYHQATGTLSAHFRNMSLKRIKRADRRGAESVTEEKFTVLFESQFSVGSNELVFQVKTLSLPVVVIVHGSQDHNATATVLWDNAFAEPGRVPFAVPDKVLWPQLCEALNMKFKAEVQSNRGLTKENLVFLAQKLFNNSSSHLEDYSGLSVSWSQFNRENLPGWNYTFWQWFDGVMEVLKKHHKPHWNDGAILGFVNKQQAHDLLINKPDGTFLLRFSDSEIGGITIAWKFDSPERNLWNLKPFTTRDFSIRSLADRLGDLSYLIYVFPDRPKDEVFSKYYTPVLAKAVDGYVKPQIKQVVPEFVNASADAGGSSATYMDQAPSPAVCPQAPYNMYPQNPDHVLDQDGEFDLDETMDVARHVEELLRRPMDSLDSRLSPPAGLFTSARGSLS
The assay can be described thus: competitive fluorescence polarization assay. The assay is classed as binding. Background: Polarisation of emitted light reports the rotation of a fluorescent probe.

In assay [2] the target is T2, STAT5b (SH2 domain) (Homo sapiens, UniProt P51692).
T2 sequence (P51692 1-787 limits assumed): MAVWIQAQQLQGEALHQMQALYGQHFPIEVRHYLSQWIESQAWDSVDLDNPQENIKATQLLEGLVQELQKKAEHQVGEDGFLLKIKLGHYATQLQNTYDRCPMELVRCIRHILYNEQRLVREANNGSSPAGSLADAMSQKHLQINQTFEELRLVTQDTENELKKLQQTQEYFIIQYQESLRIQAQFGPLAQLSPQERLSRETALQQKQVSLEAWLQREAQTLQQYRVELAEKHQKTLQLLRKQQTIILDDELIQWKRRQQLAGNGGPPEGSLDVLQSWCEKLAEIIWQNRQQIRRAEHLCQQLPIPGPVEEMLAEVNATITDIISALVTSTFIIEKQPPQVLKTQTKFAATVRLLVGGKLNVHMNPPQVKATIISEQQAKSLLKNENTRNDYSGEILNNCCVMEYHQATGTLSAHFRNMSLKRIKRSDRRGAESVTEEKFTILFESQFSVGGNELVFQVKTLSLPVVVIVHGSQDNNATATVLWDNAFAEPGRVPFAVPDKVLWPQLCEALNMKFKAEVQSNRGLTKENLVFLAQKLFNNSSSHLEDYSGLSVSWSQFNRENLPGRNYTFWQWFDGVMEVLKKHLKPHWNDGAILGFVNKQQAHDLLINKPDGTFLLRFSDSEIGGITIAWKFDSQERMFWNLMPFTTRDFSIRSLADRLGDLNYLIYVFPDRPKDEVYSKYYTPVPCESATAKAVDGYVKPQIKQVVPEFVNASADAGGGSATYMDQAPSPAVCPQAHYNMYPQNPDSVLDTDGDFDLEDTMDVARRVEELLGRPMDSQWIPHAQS
The assay can be described thus: competitive fluorescence polarization assay. The assay is classed as binding.

With `O=C(NCCc1ccc(OP(=O)(O)O)c(OP(=O)(O)O)c1)OCC1c2ccccc2-c2ccccc21` [compound 7, Fmoc-protected dopamine bisphosphate], the inhibitory constant (Ki) came to 16 ± 0.8 µM in assay [1] and 0.45 ± 0.04 µM in assay [2].

For the compound `COC(=O)[C@H](Cc1ccc(OP(=O)(O)O)c(OP(=O)(O)O)c1)NC(=O)OCC1c2ccccc2-c2ccccc21` [compound 8, Fmoc-protected L-Dopa methyl ester bisphosphate], the Ki in assay [1] is 7.8 ± 1 µM; in assay [2], 0.46 ± 0.08 µM.

As a reminder, the Ki is a measure of affinity in units of concentration, obtained from inhibition or displacement. Low readings indicate a stronger hold on the target, high ones a looser hold on the target.
